Measurements reported in patent US6627441B1, “Increasing levels of growth regulator and/or water stress during embryo development” (priority 1998, dated 2003).

Assays:
Assay type in all cases: cell-based
[1] = tested on: white spruce somatic embryos; assay: Reducing or increasing ABA with increasing water stress and desiccation, plant growth (Example 9); conditions: for Shoot development / Survival / Total plant length: 8 weeks growth
Description: Experiments were conducted to determine the effects of decreasing ABA levels in combination with increasing water stress on development, desiccation tolerance and germination of white spruce. Embryos from preculture (Example 7, treatment 8) were plated onto the transfer schedule outlined below.
Cotyledonary embryos were visible after the second week of culture, and cotyledons were prominent from the fourth week during which time the somatic embryos were in contact with 40 to 20 μM of ABA. […] For germination, the best embryos which were not showing precocious germination were selected. Somatic embryos were either germinated directly or were desiccated then germinated as described above. Controls were prepared using embryos developed using pretreatment 8, in Example 7, followed by culture on solidified medium treatment 6 of Example 4.

[2] = tested on: white spruce somatic embryos; assay: Varying ABA and PEG during development, precocious germination observations (Example 2); conditions: 6 weeks
Description: In order to test the above hypothesis, various concentrations of PEG and ABA were tested and modified during development of white spruce somatic embryos.
The starting treatments were prepared as outlined in Table 2.
The embryos were transferred to fresh medium every two weeks over a six week period. Observations were then recorded. The treatments consisted of the following ABA concentrations and media water potentials, with three replicates per treatment.

[3] = tested on: white spruce somatic embryos; assay: Effect of ABA concentration and PEG medium water potential on maturation frequency and precocious germination (Example 1); conditions: for mean maturation frequency / precocious germination (appearance of embryos): 6 weeks; for mean maturation frequency: embryos per dish; for total of means (maturation frequency): summed over PEG medium water potentials 230-310
Description: For maturation, the ½ LM basal medium was supplemented with 250 mg/L glutamine and 500 mg/L casein hydrolysate and 3% sucrose. Amino acids were filter sterilized and added to cooled media. ABA (Sigma A 2784) stock solutions were prepared by first dissolving ABA in concentrated NaOH. ABA was added after autoclaving. The purity and source of (+)-ABA can influence results. Purer (+)-ABA would be required in lower amounts. Actual levels need to be determined depending on the source of ABA, the components of the culture medium, and species being studied. […] It is also possible to complement the maturation medium by incorporating auxin and/or cytokinin, or plant growth promoters having auxin-like and cytokinin-like activity. Similarly, gibberellin is in principle also a suitable complementary growth promoter, and an empirical approach taking into account such factors as plant species, environment, and so forth should be used to determine the concentration etc. of gibberellin.
For maturation, the solidified culture medium in 9 cm petri dishes was overlaid with a filter paper support to facilitate transfers to fresh media. Onto this was pipetted 0.75 mL of a 20% suspension of precultured cells resuspended in fresh hormone-free preculture medium with 3% sucrose. Cultures were incubated at 25 ° C. in the dark and transferred to fresh medium every two weeks.
Thus, immature white spruce somatic embryos were cultured on medium containing 8, 16, 24, and 32 μM ABA. […] Embryos were transferred to fresh medium of the same composition and were cultured for a total of six weeks. The number of embryos per dish were then counted and the appearance of the embryos was recorded. Results are for three to eight dishes per treatment. A total of 2439 mature embryos were recorded.

[4] = tested on: white spruce somatic embryos; assay: Somatic seedling length after desiccation and germination (Example 8); conditions: ABA raised to 40 μM and water potential to 400 or 540 mmol/kg with PEG, versus control; two weeks
Text: In order to desiccate the somatic embryos, they were transferred on their filter paper supports to an empty petri dish. The lid was replaced and left unsealed to prevent contamination while allowing the moisture to escape from the dish. Somatic embryos were desiccated in a sterile chamber in which sterile air at ambient relative humidity (usually 20-60% r.h.) was passed. Similarly, embryos may be desiccated in one or more controlled gaseous environments of relative humidity, ranging from about 5% to 100%. […] Embryos were usually left two weeks to dry. Desiccated embryos can then be stored, preferably frozen, or germinated directly.
For germination, the somatic embryos upon their filter paper supports were rehydrated on germination medium. This consisted of ½ LM, 2% sucrose, 0.7% agar (Sigma), with no growth regulators, glutamine or casein hydrolysate, in petri dishes or Sigma PHYTATRAYS™. […]
Somatic embryos were produced following the methods described in Example 4. […] One batch of desiccated spruce embryos produced using these methods was measured and a moisture content of about 7.7 (±0.2)% recorded. […] Two weeks after imbibition, the somatic plantlets were removed from the culture medium and their lengths were measured. Between 53 to 63 somatic plantlets were recorded per treatment.

For `CC1=CC(=O)CC(C)(C)[C@@]1(O)/C=C/C(C)=C\C(=O)O` [ABA, abscisic acid], the “appearance of developed embryos, precocious germination” value ([1]; ABA decreasing 40, 20, 10, 0 μM with PEG 290, 400, 540, 540 mmol/kg over 6 weeks) was “slight swelling and slight greening”, the Shoot development ([1]; Increasing ABA, desiccated) was 93% and the Survival ([1]; Increasing ABA, desiccated) was 100%. For the same compound, the Total plant length ([1]; Increasing ABA, desiccated) was 34.5 mm, the Shoot development ([1]; Reducing ABA, desiccation) was 0% and the Survival ([1]; Reducing ABA, desiccation) was 80.5%. It also gave a Total plant length ([1]; Reducing ABA, desiccation) of 8.14 mm, a Shoot development ([1]; Reducing ABA, no desiccation) of 0% and a Survival ([1]; Reducing ABA, no desiccation) of 100%. The Total plant length ([1]; Reducing ABA, no desiccation) was 25.8 mm, the new needle development ([1]; Reducing ABA, non-desiccated embryos, after 12 weeks of growth) was “none had shown new needle development” and the “observations (greening, precocious germination)” value (“observations” below) ([2]; Expt A (start PEG 260 mmol/kg, ABA 16 μM), 1. Control, fresh medium of the same composition) was “green, cotyledon elongation”. For the same compound, the “observations” value ([2]; Expt A (start PEG 260 mmol/kg, ABA 16 μM), 2. Raise ABA (24, 32 μM)) was “slight or no greening”, the “observations” value ([2]; Expt A (start PEG 260 mmol/kg, ABA 16 μM), 5. Raise PEG (290, 320 mmol/kg), raise ABA (24, 32 μM)) was “slight or no greening” and the “observations” value ([2]; Expt B (start PEG 260 mmol/kg, ABA 24 μM), 1. Control, fresh medium of the same composition) was “greening”. For the same compound, the “observations” value ([2]; Expt B (start PEG 260 mmol/kg, ABA 24 μM), 2. Raise ABA (32, 32 μM)) was “no greening”, the “observations” value ([2]; Expt B (start PEG 260 mmol/kg, ABA 24 μM), 5. Raise PEG (290, 320 mmol/kg), raise ABA (32, 32 μM)) was “slight or no greening” and the “observations” value ([2]; Expt C (start PEG 290 mmol/kg, ABA 8 μM), 2. Raise ABA (16, 24 μM)) was “greening”. The “observations” value ([2]; Expt C (start PEG 290 mmol/kg, ABA 8 μM), Raise PEG (12, 14%), raise ABA (16, 24 μM)) was “none or slight greening”, the “observations” value ([2]; Expt D (start PEG 290 mmol/kg, ABA 16 μM), 2. Raise ABA (24, 32 μM)) was “no greening” and the “observations” value ([2]; Expt D (start PEG 290 mmol/kg, ABA 16 μM), 4. Raise PEG (290, 320), lower ABA (8, 8 μM)) was “greening”. The “observations” value ([2]; Expt D (start PEG 290 mmol/kg, ABA 16 μM), 5. Raise PEG (290, 320), raise ABA (24, 32 μM)) was “no greening”, the mean maturation frequency ([3]; ABA 8 μm, PEG medium water potential 230 (mmol/kg)) was 29.7 and the mean maturation frequency ([3]; ABA 8 μm, PEG medium water potential 260 (mmol/kg)) was 53.0. For the same compound, the mean maturation frequency ([3]; ABA 8 μm, PEG medium water potential 290 (mmol/kg)) was 44.3, the mean maturation frequency ([3]; ABA 8 μm, PEG medium water potential 310 (mmol/kg)) was 10.7 and the “precocious germination (appearance of embryos)” value ([3]; ABA 8 μm, PEG medium water potential 310 (mol/kg)) was “greening”. For the same compound, the “total of means (maturation frequency)” value ([3]; ABA 8 μm) was 137.7, the mean maturation frequency ([3]; ABA 16 μm, PEG medium water potential 230 (mmol/kg)) was 15.6 and the mean maturation frequency ([3]; ABA 16 μm, PEG medium water potential 260 (mmol/kg)) was 44.0. The “precocious germination (appearance of embryos)” value ([3]; ABA 16 μm, PEG medium water potential 260 (mol/kg)) was “greening”, the mean maturation frequency ([3]; ABA 16 μm, PEG medium water potential 290 (mmol/kg)) was 20.1 and the mean maturation frequency ([3]; ABA 16 μm, PEG medium water potential 310 (mmol/kg)) was 0. For the same compound, the “total of means (maturation frequency)” value ([3]; ABA 16 μm) was 79.7, the mean maturation frequency ([3]; ABA 24 μm, PEG medium water potential 230 (mmol/kg)) was 28.0 and the “precocious germination (appearance of embryos)” value ([3]; ABA 24 μm, PEG medium water potential 230 (mol/kg)) was “greening”. The mean maturation frequency ([3]; ABA 24 μm, PEG medium water potential 260 (mmol/kg)) was 22.8, the mean maturation frequency ([3]; ABA 24 μm, PEG medium water potential 290 (mmol/kg)) was 28.7 and the mean maturation frequency ([3]; ABA 24 μm, PEG medium water potential 310 (mmol/kg)) was 1.0. For the same compound, the “total of means (maturation frequency)” value ([3]; ABA 24 μm) was 80.5, the mean maturation frequency ([3]; ABA 32 μm, PEG medium water potential 230 (mmol/kg)) was 28.0 and the mean maturation frequency ([3]; ABA 32 μm, PEG medium water potential 260 (mmol/kg)) was 22.7. The mean maturation frequency ([3]; ABA 32 μm, PEG medium water potential 290 (mmol/kg)) was 8.6, the mean maturation frequency ([3]; ABA 32 μm, PEG medium water potential 310 (mmol/kg)) was 2.5 and the “total of means (maturation frequency)” value ([3]; ABA 32 μm) was 61.8. The “increase in plantlet length” value [4] was about 50%.
